Earlier results in patent publication US20140080710A1, “COMPOSITIONS WITH HOT MELT RESIN MATRIX” (AgroFresh Inc., priority 2012, published 2014).

System: ethylene receptor
Conditions: compared with ethylene

In the case of `CC1=CC1` [Sample 1-MCP, 1-methylcyclopropene], the “affinity for the receptor relative to that of ethylene” value is listed as “approximately 10 times”.
